According to patent US6077509A, “Peptide fragments of myelin basic protein” (Autoimmune, Inc., priority 1995, dated 2000):

B1: proteolipid protein (protein, UniProt P60201 2-277, looked up)
Myelin proteolipid protein: GLLECCARCLVGAPFASLVATGLCFFGVALFCGCGHEALTGTEKLIETYFSKNYQDYEYLINVIHAFQYVIYGTASFFFLYGALLLAEGFYTTGAVRQIFGDYKTTICGKGLSATVTGGQKGRGSRGQHQAHSLERVCHCLGKWLGHPDKFVGITYALTVVWLLVFACSAVPVYIYFNTWTTCQSIAFPSKTSASIGSLCADARMYGVLPWNAFPGKVCGSNLLSICKTAEFQMTFHLFIAAFVGAAATLVSLLTFMIAATYNFAVLKLMGRGTKF
B2: myelin basic protein (protein, UniProt P25188 1-167, looked up)
Myelin basic protein: ASQKRPSQRHGSKYLATASTMDHARHGFLPRHRDTGILDSIGRFFGSDRAAPKRGSGKDSHHAARTTHYGSLPQKSQRSQDENPVVHFFKNIVTPRTPPPSQGKGRGLSLSRFSWGAEGQKPGFGYGGRADYKSKGFKGAHDAQGTLSKIFKLGGRDSRSGSPMARR

Tests used:
actively induced EAE = experiment: Actively induced EAE (MBP/CFA immunization), clinical score; assay type: in vivo, Lewis rats; conditions: for suppression of EAE via IV tolerization: intravenously prior to immunization for actively induced disease (FIG. 7)
[1] = system: short term T-cell lines from peripheral blood mononuclear cells; experiment: Proliferation assay of short term T-cell lines for reactivity to MBP, PLP and overlapping MBP peptides; assay type: cell-based, human; conditions: for mean frequency of T-cell lines selectively reactive to the peptide, MS vs controls (FIG. 1): MS patients compared with combined controls
Description: A rapid T-cell cloning technique was used to examine whether there were immunodominant epitopes on human MBP reactive with Class II MHC phenotypes and the frequency of such reactivity. A total of 15,824 short term T-cell lines were generated from 51 human subjects by culturing peripheral blood mononuclear cells ([…]) with purified MBP (100 μg) followed 3 days later, and then every 3-4 days, by the addition of interleukin-2 (IL-2; from ABI, Columbia, Md.) and 2 units recombinant interleukin-4 (IL-4; Genzyme, Boston, Mass.). On Day 13 of culture, an aliquot from each line was tested for reactivity to MBP using the following proliferation assay: T-cell clones (1×10^5 cells/well) were plated in triplicate and cocultured with appropriate stimuli (i.e. 100 μg whole MBP or 5% IL-2) for 72 hours at 37° C., 90% humidity, 5% CO2, in 96 well flat bottomed microtiter plates (Costar). The cells were pulsed with 2 μCi [^3 H]TdR (2 Ci/mmole, New England Nuclear, Boston, Mass.) for the last 18 hours of culture. APCs were prepared by pulsing human Epstein-Barrvirus transformed human B-cells (the virus being commercially available from ATCC) or L-cells which are mouse cells transfected with human DR2 (L-cells are commercially available from ATCC under accession No. ATCC-CCL1 and can be transfected according to the method of Wilkinson, D. et al, J. Exp. Med., 1988, 167:1442-1458 using-DNA encoding DR2 as per Wu, S. et al J. Immunol., 1987, 138:2953). B-cells or L-cells were used at 1×10^6 cells/well in complete media either in the presence or absence of 40 pM MBP or phospholipid protein (PLP) for 2 hours at 37° C., washing twice with 4° C. […]
Subjects with other central nervous system diseases had the following diagnoses: 1-3 weeks after either cerebrovascular accident (n=4), brain trauma with CNS hemorrhage (n=4), or metastatic brain tumor (n=2). […] In addition, the frequency of MBP and PLP-reactive lines was calculated separately for each subject by dividing the number of MBP-reactive lines by the total number of lines generated and the mean values +/- SEM are given. […]

Molecule	suppression of EAE via IV tolerization (actively induced EAE)	mean frequency of T-cell lines selectively reactive to the peptide, MS vs controls (FIG. 1) [1]	further results
131-150: Control guinea pig MBP peptide 131-150 (DYKSKGFKGAHDAQGTLSKI; UniProt P25188 131-150, looked up, fragment)	did not suppress		suppression of EAE via oral tolerization (actively induced EAE; orally prior to immunization for actively induced disease (FIG. 7)): did not suppress
FKGVDAQGTLSKIFKLGGRD [143-168, human MBP amino acid residues 143-168]		both MS and control subjects showed high frequencies	
HHPARTAHYGSLPQKSEGRT [61-82]		Significant but less striking increases in reactivity	
histone			mean maximal score (actively induced EAE; IV injection before immunization with MBP/CFA, clinical scale 0-5): 3.0±0.3
B1			MEAN FREQUENCY OF Ag REACTIVE LINES ([1]; other neurological disease (n = 10), mean +/- SEM): 0.90 ± 0.62
B2	suppression of EAE		
